23 molecules from US10597392B2, “Tetrahydropyridopyrazines as modulators of GPR6” (Takeda Pharmaceutical Corporation Limited, priority 2014, dated 2020) can be followed below.

In general, EC50 refers to the concentration giving half of the maximal effect. A high value points to a less potent agent.

For one test, the target named is T1, GPR6 receptor expressed in CHO-K1 cells (Homo sapiens, UniProt P46095).
T1 construct: expressed in transfected cells
T1 sequence (P46095 whole entry): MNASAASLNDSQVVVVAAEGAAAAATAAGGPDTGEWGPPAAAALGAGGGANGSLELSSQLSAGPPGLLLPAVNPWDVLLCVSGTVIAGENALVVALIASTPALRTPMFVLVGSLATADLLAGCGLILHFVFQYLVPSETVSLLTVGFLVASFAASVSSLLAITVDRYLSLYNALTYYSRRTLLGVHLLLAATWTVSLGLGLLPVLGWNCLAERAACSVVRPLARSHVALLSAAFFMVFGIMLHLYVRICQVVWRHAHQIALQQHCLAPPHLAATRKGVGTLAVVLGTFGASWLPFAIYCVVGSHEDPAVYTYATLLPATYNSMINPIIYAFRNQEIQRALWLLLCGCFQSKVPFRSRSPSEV
Nature of the test: Inhibition of cAMP Activity of GPR6 In Vitro Assay. It counts as cell-based. The following applies: inhibition of constitutive cAMP activity of GPR6 in CHO-K1 cells, 45 min incubation, HTRF cAMP detection. Here is the method:
Inhibition of cAMP Activity of GPR6 In Vitro Assay
This cell based assay measures the ability of compounds to inhibit the constitutive cAMP activity of GPR6 receptor expressed in CHO-K1 cells. CHO cells were stably expressed with GPR6 receptor, whose expression is controlled by a tetracycline inducable element. The cells were cultured in medium containing F12K, 10% FBS, 1% Penn/Strep, 200 ug/mL Hygromycin. GPR6 receptor expression was induced for 20 hrs with 2 µg/ml doxycycline (sigma D9891) in growth media. After addition of doxycycline cells were plated at a density of 450-750 cells per well in 96-well half-volume black tissue culture plates (Costar) and placed in an incubator (37°, 5% CO2) for 20 hours prior to cAMP assays.
Culture media was removed from cells and they were washed with 50 µL/well of Ringer's Buffer (MgCl2 0.047 mg/mL, NaH2PO4 0.18 mg/mL, Na2HPO4 0.1 mg/mL, KCl 0.34 mg/mL, NaHCO3 1.26 mg/mL, D-glucose 1.8 mg/mL, NaCl 7 mg/mL; pH=7.4). Compounds suspended in DMSO were diluted in Ringer's Buffer containing 0.5% fatty acid free BSA plus 300 μM IBMX and incubated on cells for 45 min at 37° and 5% CO2. After incubation cells were incubated for 10 min at room temp with Eu-cAMP tracer solution from a Perkin Elmer Lance HTRF Ultra cAMP assay kit (TRF0263). Then ULight™-anti-cAMP solution from the Lance HTRF kit was added and incubated on a shaker at room temp for 1 hour prior to HTRF detection in a Perkin Elmer Envision plate reader.
IC50 curves were generated with a four-parameter logistic equation using GraphPad Prism 5.03.
Regarding `Cc1cc2nc(N[C@H]3CCOC3)c(N3CCC(Oc4ccc(F)cc4F)CC3)nc2cn1` [Example 4, (S)-3-(4-(2,4-difluorophenoxy)piperidin-1-yl)-7-methyl-N-(tetrahydrofuran-3-yl)pyrido[3,4-b]pyrazin-2-amine], it took 49.6 nM to reach a half-maximal effect (EC50).

In turn, `Cc1cc2nc(N[C@H]3C[C@H](O)C3)c(N3CCN(Cc4ccc(F)cc4F)CC3)nc2cn1` [Example 14, trans-3-((3-(4-(2,4-difluorobenzyl)piperazin-1-yl)-7-methylpyrido[3,4-b]pyrazin-2-yl)amino)cyclobutanol] registered an EC50 of 75.2 nM.

The molecule `Cc1cc2nc(N[C@H]3CCOC3)c(N3CCN(Cc4ccc(F)cc4F)CC3)nc2cn1` [Example 3] had an EC50 of 88.2 nM.

Consider `Cc1cc2nc(N3CCN(Cc4ccc(F)cc4F)CC3)c(N[C@@H]3CCOC3)nc2cn1` [Example 33], for which the EC50 was 102 nM.

As to `Cc1cc2nc(N3CCN(Cc4ccc(OC(F)F)cc4F)CC3)c(NC3CC3)nc2cn1` [Example 47, N-cyclopropyl-2-(4-(4-(difluoromethoxy)-2-fluorobenzyl)piperazin-1-yl)-7-methylpyrido[3,4-b]pyrazin-3-amine], the EC50 is more than 1000 nM.

Molecule `Cc1cc2nc(N[C@H]3C[C@@H](O)C3)c(N3CCN(Cc4ccc(F)cc4F)CC3)nc2cn1` [Example 10, cis-3-((3-(4-(2,4-difluorobenzyl)piperazin-1-yl)-7-methylpyrido[3,4-b]pyrazin-2-yl)amino)cyclobutanol] returned a 50% effective concentration (EC50) of 69.3 nM.

On to `Cc1cc2nc(N[C@H]3CCOC3)c(N3CCN(Cc4ccc(OC(F)F)cc4F)CC3)nc2cn1` [Example 29, (S)-3-(4-(4-(difluoromethoxy)-2-fluorobenzyl)piperazin-1-yl)-7-methyl-N-(tetrahydrofuran-3-yl)pyrido[3,4-b]pyrazin-2-amine], for which the concentration giving a half-maximal response (EC50) was more than 1000 nM.

Molecule `Cc1cc2nc(N3CCN(Cc4ccc(F)cc4F)CC3)c(NC3CC3)nc2cn1` [Example 31, N-cyclopropyl-2-(4-(2,4-difluorobenzyl)piperazin-1-yl)-7-methylpyrido[3,4-b]pyrazin-3-amine 2,2,2-trifluoroacetate] returned an EC50 of 188 nM.

Consider `Cc1cc2nc(N[C@@H]3CCOC3)c(N3CCC(Oc4ccc(OC(F)F)cc4F)CC3)nc2cn1` [Example 20, (R)-3-(4-(4-(difluoromethoxy)-2-fluorophenoxy)piperidin-1-yl)-7-methyl-N-(tetrahydrofuran-3-yl)pyrido[3,4-b]pyrazin-2-amine], for which the EC50 turned out to be 81.4 nM.

For the molecule `Cc1cc2nc(N3CCN(Cc4ccc(OC(F)F)cc4F)CC3)c(NC(C)C)nc2cn1` [Example 46, 2-(4-(4-(difluoromethoxy)-2-fluorobenzyl)piperazin-1-yl)-N-isopropyl-7-methylpyrido[3,4-b]pyrazin-3-amine], the EC50 is more than 1000 nM.

`Cc1cc2nc(NC(C)C)c(N3CCC(Oc4ccc(F)cc4F)CC3)nc2cn1` [Example 2, 3-(4-(2,4-difluorophenoxy)piperidin-1-yl)-N-isopropyl-7-methylpyrido[3,4-b]pyrazin-2-amine] displayed an EC50 of 16.5 nM.

`Cc1cc2nc(NC3CC3)c(N3CCC(Oc4ccc(OC(F)F)cc4F)CC3)nc2cn1` [Example 19, N-cyclopropyl-3-(4-(4-(difluoromethoxy)-2-fluorophenoxy)piperidin-1-yl)-7-methylpyrido[3,4-b]pyrazin-2-amine] came in with an EC50 of 62.6 nM.

Molecule `Cc1cc2nc(NC(C)C)c(N3CCC(Oc4ccc(OC(F)F)cc4F)CC3)nc2cn1` [Example 18, 3-(4-(4-(difluoromethoxy)-2-fluorophenoxy)piperidin-1-yl)-N-isopropyl-7-methylpyrido[3,4-b]pyrazin-2-amine] registered an EC50 of 39.9 nM.

In turn, `Cc1cc2nc(N3CCC(Oc4ccc(F)cc4F)CC3)c(N[C@@H]3CCOC3)nc2cn1` [Example 36] gave an EC50 of 76.3 nM.

Take `COc1ccc(CN2CCN(c3nc4cnc(C)cc4nc3N[C@@H]3CCOC3)CC2)c(F)c1` [Example 24, (R)-3-(4-(2-fluoro-4-methoxybenzyl)piperazin-1-yl)-7-methyl-N-(tetrahydrofuran-3-yl)pyrido[3,4-b]pyrazin-2-amine]: the EC50 was found to be 311 nM.

For the molecule `Cc1cc2nc(N[C@H]3CCOC3)c(N3CCC(Oc4ccc(OC(F)F)cc4F)CC3)nc2cn1` [Example 21, (S)-3-(4-(4-(difluoromethoxy)-2-fluorophenoxy)piperidin-1-yl)-7-methyl-N-(tetrahydrofuran-3-yl)pyrido[3,4-b]pyrazin-2-amine], the response was half-maximal at 162 nM (EC50).

Turning to `Cc1cc2nc(N[C@H]3C[C@H](F)C3)c(N3CCC(Oc4ccc(F)cc4F)CC3)nc2cn1` [Example 11, trans-3-(4-(2,4-difluorophenoxy)piperidin-1-yl)-N-(3-fluorocyclobutyl)-7-methylpyrido[3,4-b]pyrazin-2-amino], the EC50 amounted to 61.4 nM.

With `Cc1cc2nc(N[C@H]3C[C@H](F)C3)c(N3CCN(Cc4ccc(F)cc4F)CC3)nc2cn1` [Example 12, trans-3-(4-(2,4-difluorobenzyl)piperazin-1-yl)-N-(3-fluorocyclobutyl)-7-methylpyrido[3,4-b]pyrazin-2-amine], the EC50 turned out to be 49.4 nM.

Molecule `Cc1cc2nc(N3CCN(Cc4ccc(OC(F)F)cc4F)CC3)c(N[C@H]3CCOC3)nc2cn1` [Example 49, (S)-2-(4-(4-(difluoromethoxy)-2-fluorobenzyl)piperazin-1-yl)-7-methyl-N-(tetrahydrofuran-3-yl)pyrido[3,4-b]pyrazin-3-amine] returned an EC50 of more than 1000 nM.

Molecule `COc1ccc(OC2CCN(c3nc4cnc(C)cc4nc3NC3CC3)CC2)c(F)c1` [Example 8, N-cyclopropyl-3-(4-(2-fluoro-4-methoxyphenoxy)piperidin-1-yl)-7-methylpyrido[3,4-b]pyrazin-2-amine 2,2,2-trifluoroacetate] showed an EC50 of 18.5 nM.

For the molecule `Cc1cc2nc(N3CCC(Oc4ccc(OC(F)F)cc4F)CC3)c(N[C@H]3CCOC3)nc2cn1` [Example 41, (S)-2-(4-(4-(difluoromethoxy)-2-fluorophenoxy)piperidin-1-yl)-7-methyl-N-(tetrahydrofuran-3-yl)pyrido[3,4-b]pyrazin-3-amine], the EC50 is more than 1000 nM.

Molecule `COc1ccc(CN2CCN(c3nc4cnc(C)cc4nc3NC(C)C)CC2)c(F)c1` [Example 22, 3-(4-(2-fluoro-4-methoxybenzyl)piperazin-1-yl)-N-isopropyl-7-methylpyrido[3,4-b]pyrazin-2-amine] came in with an EC50 of 37.3 nM.

In a further test the test system is Haloperidol-Induced Catalepsy. Nature of the test: Haloperidol-Induced Catalepsy, In Vivo Rodent Parkinson's Disease Model. The following applies: Rat, dose 1 mg/kg, sc. The text has this: Haloperidol-Induced Catalepsy—In Vivo Rodent Parkinson's Disease Model
The motor symptoms of Parkinson's disease include akinesia, bradykinesia, rigidity, tremor and postural abnormalities and are associated with the loss of nigral dopaminergic cells and a decline in striatal dopamine levels. Administration of haloperidol to rodents leads to a transient parkinsonian-like state that is reversed by the administration of L-Dopa (Duty, S.; Jenner, P. Br. J. Pharmacol. (2011), 164, 1357-1391) and other drugs that have been clinically validated for the treatment of Parkinson's disease. Haloperidol antagonizes dopamine D2 and, to a lesser extent, D1 receptors in medium spiny neurons that comprise the indirect and direct pathways of the motor circuit respectively. The resultant block of striatal dopamine transmission results in abnormal downstream firing within the basal ganglia circuits that is manifest as symptoms of muscle rigidity and catalepsy. Catalepsy has been postulated to reflect the clinical features of Parkinson's disease, whereby patients experience an inability of to initiate movements.
Male Sprague-Dawley rats (Charles River, Calco, Italy) weighing 175-200 g are used. Alternatively, male C57Bl6 mice weighing 25-35 g were used. The cataleptic state was induced by the subcutaneous administration of the dopamine receptor antagonist haloperidol (0.3 mg/kg, sc), 90 min before testing the animals on the vertical grid test. […] The time span from placement of the paws until the first complete removal of one paw (descent latency) was measured maximally for 120 sec for rats. For mice, the front paws of a mouse was placed on a horizontal metal bar raised 2″ above a Plexiglas platform and time was recorded for up to 30 seconds per trial. […]
Catalepsy was measured 30 min, […], and/or […] after dosing the subjects a 1.0 mg/kg i.p. dose of haloperidol along with the GPR6 modulator test compound. Test compound plasma and brain levels were determined by collected tissue samples at the end of the experiment, which was either at the 120 or 240 min time point. […]
`Cc1cc2nc(NC3CC3)c(N3CCN(Cc4ccc(F)cc4F)CC3)nc2cn1` [Example 7, N-cyclopropyl-3-(4-(2,4-difluorobenzyl)piperazin-1-yl)-7-methylpyrido[3,4-b]pyrazin-2-amine]: the “% reversal at 90 min” value is on record as 33.5%.

The test is the same for the next values; noted with them: Rat, dose 10 mg/kg, sc.
In the case of `Cc1cc2nc(NC3CC3)c(N3CCN(Cc4ccc(F)cc4F)CC3)nc2cn1` [Example 7, N-cyclopropyl-3-(4-(2,4-difluorobenzyl)piperazin-1-yl)-7-methylpyrido[3,4-b]pyrazin-2-amine], the “% reversal at 90 min” value worked out at 63.6%.

Staying with this test, now noted: Rat, dose 30 mg/kg, sc.
As to `Cc1cc2nc(NC3CC3)c(N3CCN(Cc4ccc(F)cc4F)CC3)nc2cn1` [Example 7, N-cyclopropyl-3-(4-(2,4-difluorobenzyl)piperazin-1-yl)-7-methylpyrido[3,4-b]pyrazin-2-amine], the “% reversal at 90 min” value stood at 42.8%.
